According to patent US8324248B2, “Piperidine derivatives as NK3 receptor antagonists” (Hoffmann-La Roche Inc., priority 2009, dated 2012):

Molecular target: T1, recombinant human NK3 receptor (Homo sapiens, UniProt P29371)
T1 construct: expressed in transfected cells; host or cells: HEK293 cells (transient expression), membranes
T1 sequence (P29371 1-465): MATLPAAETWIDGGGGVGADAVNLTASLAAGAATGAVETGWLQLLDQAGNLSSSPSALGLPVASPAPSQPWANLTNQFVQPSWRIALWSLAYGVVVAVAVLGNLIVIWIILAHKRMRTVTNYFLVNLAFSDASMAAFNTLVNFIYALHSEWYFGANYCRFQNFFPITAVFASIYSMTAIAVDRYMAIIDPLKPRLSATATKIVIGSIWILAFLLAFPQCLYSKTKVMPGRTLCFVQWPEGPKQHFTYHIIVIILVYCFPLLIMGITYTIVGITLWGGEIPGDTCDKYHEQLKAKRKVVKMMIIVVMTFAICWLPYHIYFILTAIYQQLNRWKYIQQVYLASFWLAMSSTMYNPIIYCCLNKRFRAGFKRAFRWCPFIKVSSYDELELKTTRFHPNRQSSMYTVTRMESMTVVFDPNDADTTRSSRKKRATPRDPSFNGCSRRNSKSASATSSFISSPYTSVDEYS
Test: [3H]SR142801 competition binding assay, hNK3 receptor binding
Conditions: [3H]SR142801 displacement; membranes from HEK293 cells transiently expressing recombinant human NK3 receptor; Ki by Cheng-Prussoff from IC50
Experimental: The compounds were investigated in accordance with the tests given hereinafter. [^3H]SR142801 competition binding assay hNK3 receptor binding experiment were performed using [^3H]SR142801 (Catalog No. TRK1035, specific activity: 74.0 Ci/mmol, Amersham, GE Healthcare UK limited, Buckinghamshire, UK) and membrane isolated from HEK293 cells transiently expressing recombinant human NK3 receptor. After thawing, the membrane homogenates were centrifuged at 48,000×g for 10 min at 4° C., the pellets were resuspended in the 50 mM Tris-HCl, 4 mM MnCl2, 1 μM phosphoramidon, 0.1% BSA binding buffer at pH 7.4 to a final assay concentration of 5 μg protein/well. For inhibition experiments, membranes were incubated with [^3H]SR142801 at a concentration equal to KD value of radioligand and 10 concentrations of the inhibitory compound (0.0003-10 μM) (in a total reaction volume of 500 μl) for 75 min at room temperature (RT). At the end of the incubation, membranes were filtered onto unitfilter (96-well white microplate with bonded GF/C filter preincubated 1 h in 0.3% PEI+0.3% BSA, Packard BioScience, Meriden, Conn.) with a Filtermate 196 harvester (Packard BioScience) and washed 4 times with ice-cold 50 mM Tris-HCl, pH 7.4 buffer. Nonspecific binding was measured in the presence of 10 μM SB222200 for both radioligands. The radioactivity on the filter was counted (5 min) on a Packard Top-count microplate scintillation counter with quenching correction after addition of 45 μl of microscint 40 (Can berra Packard S. A., Zürich, Switzerland) and shaking for 1 h. Inhibition curves were fitted according to the Hill equation: y=100/(1+(x/IC50)^nH), where nH=slope factor using Excel-fit 4 software (Microsoft). IC50 values were derived from the inhibition curve and the affinity constant (Ki) values were calculated using the Cheng-Prussoff equation Ki=IC50/(1+[L]/KD) where [L] is the concentration of radioligand and KD is its dissociation constant at the receptor, derived from the saturation isotherm. All experiments were performed in duplicate and the mean±standard error (SEM) of the individual Ki values was calculated.

| Ki [nM] | Structure (SMILES) |
| --- | --- |
| 5.8 | CC1(C(=O)N2CCC(C(=O)N3CC[C@H](COc4ccc(Cl)cn4)[C@@H](c4ccc(F)c(F)c4)C3)CC2)CC1 (racemic) [Example 32, {4-[(3SR,4SR)-4-(5-Chloro-pyridin-2-yloxymethyl)-3-(3,4-difluoro-phenyl)-piperidine-1-carbonyl]-piperidin-1-yl}-(1-methyl-cyclopropyl)-methanone] |
| 8.3 | Cc1noc(-c2ccc(C(=O)N3CC[C@H](COc4ccc(Cl)cn4)[C@@H](c4ccc(F)c(F)c4)C3)cc2)n1 (racemic) [Example 31, [(3SR,4SR)-4-(5-Chloro-pyridin-2-yloxymethyl)-3-(3,4-difluoro-phenyl)-piperidin-1-yl]-[4-(3-methyl-[1,2,4]oxadiazol-5-yl)-phenyl]-methanone] |
| 0.2 | C[C@H](Oc1ccc(Cl)cn1)[C@H]1CCN(C(=O)C2CCN(c3ccc(C#N)cn3)CC2)C[C@@H]1c1ccc(F)c(F)c1 [Example 62, 4-[(3S,4S)-4-[(S)-1-(5-Chloro-pyridin-2-yloxy)-ethyl]-3-(3,4-difluoro-phenyl)-piperidine-1-carbonyl]-3,4,5,6-tetrahydro-2H-[1,2′]bipyridinyl-5′-carbonitrile] |
| 2.3 | Cc1nc(-c2ccc(C(=O)N3CC[C@H]([C@H](C)Oc4ccc(Cl)cn4)[C@@H](c4ccc(Cl)cc4)C3)cc2)no1 [Example 12, {(3S,4S)-3-(4-Chloro-phenyl)-4-[(S)-1-(5-chloro-pyridin-2-yloxy)-ethyl]-piperidin-1-yl}-[4-(5-methyl-[1,2,4]oxadiazol-3-yl)-phenyl]-methanone] |
| 0.3 | C[C@H](Oc1ccc(C#N)cn1)[C@H]1CCN(C(=O)C2CCN(c3ccc(C#N)cn3)CC2)C[C@@H]1c1ccc(Cl)cc1 [Example 27, 4-{(3S,4S)-3-(4-Chloro-phenyl)-4-[(S)-1-(5-cyano-pyridin-2-yloxy)-ethyl]-piperidine-1-carbonyl}-3,4,5,6-tetrahydro-2H-[1,2′]bipyridinyl-5′-carbonitrile] |
| 5.1 | Cc1nc(-c2ccc(C(=O)N3CC[C@H]([C@H](C)Oc4ccc(C#N)cn4)[C@@H](c4ccc(Cl)cc4)C3)cc2)no1 [Example 26, 6-((S)-1-{(3S,4S)-3-(4-Chloro-phenyl)-1-[4-(5-methyl-[1,2,4]oxadiazol-3-yl)-benzoyl]-piperidin-4-yl}-ethoxy)-nicotinonitrile] |
| 7.7 | C[C@H](Oc1ccc(C#N)cn1)[C@H]1CCN(C(=O)c2ccc(-c3ccc(F)cc3)cc2)C[C@@H]1c1ccc(Cl)cc1 [Example 29, 6-{(8)-1-[(3S,4S)-3-(4-Chloro-phenyl)-1-(4′-fluoro-biphenyl-4-carbonyl)-piperidin-4-yl]-ethoxy}-nicotinonitrile] |
| 3 | C[C@H](Oc1ccc(C#N)cn1)[C@H]1CCN(C(=O)N2CCN(S(C)(=O)=O)CC2)C[C@@H]1c1ccc(Cl)cc1 [Example 28, 6-{(S)-1-[(3S,4S)-3-(4-Chloro-phenyl)-1-(4-methanesulfonyl-piperazine-1-carbonyl)-piperidin-4-yl]-ethoxy}-nicotinonitrile] |
| 4.1 | C[C@H](Oc1ccc(Cl)cn1)[C@H]1CCN(C(=O)C2CCN(C(=O)C3(C)CC3)CC2)C[C@@H]1c1ccc(Cl)cc1 (racemic) [Example 5, (4-{(3SR, 4SR)-3-(4-Chloro-phenyl)-4-[(SR)-1-(5-chloro-pyridin-2-yloxy)-ethyl]-piperidine-1-carbonyl}-piperidin-1-yl)-(1-methyl-cyclopropyl)-methanone] |

Continued, compound first:

| Structure (SMILES) | Ki [nM] |
| --- | --- |
| Cc1ccc(O[C@@H](C)[C@H]2CCN(C(=O)C3CCN(c4ccc(C#N)cn4)CC3)C[C@@H]2c2ccc(Cl)cc2)cc1 [Example 57, 4-[(3S,4S)-3-(4-Chloro-phenyl)-4-((S)-1-p-tolyloxy-ethyl)-piperidine-1-carbonyl]-3,4,5,6-tetrahydro-2H-[1,2′]bipyridinyl-5′-carbonitrile] | 1.4 |
| C[C@H](Oc1ccc(C#N)cn1)[C@H]1CCN(C(=O)C2CCN(c3ccc(C#N)cn3)CC2)C[C@@H]1c1ccc(F)c(F)c1 [Example 65, 4-[(3S,4S)-4-[(S)-1-(5-Cyano-pyridin-2-yloxy)-ethyl]-3-(3,4-difluoro-phenyl)-piperidine-1-carbonyl]-3,4,5,6-tetrahydro-2H-[1,2′]bipyridinyl-5′-carbonitrile] | 0.4 |
| N#Cc1ccc(N2CCC(C(=O)N3CC[C@H](COc4ccc(Cl)cn4)[C@@H](c4ccccc4)C3)CC2)nc1 [Example 47, 4-[(3S,4S)-4-(5-Chloro-pyridin-2-yloxymethyl)-3-phenyl-piperidine-1-carbonyl]-3,4,5,6-tetrahydro-2H-[1,2′]bipyridinyl-5′-carbonitrile] | 9.9 |
| Cc1nc(-c2ccc(C(=O)N3CC[C@H]([C@H](C)Oc4ccc(C(F)(F)F)cn4)[C@@H](c4ccc(Cl)cc4)C3)cc2)no1 [Example 19, {(3S,4S)-3-(4-Chloro-phenyl)-4-[(S)-1-(5-trifluoromethyl-pyridin-2-yloxy)-ethyl]-piperidin-1-yl}-[4-(5-methyl-[1,2,4]oxadiazol-3-yl)-phenyl]-methanone] | 1.4 |
| C[C@H](Oc1ccc(Cl)c(Cl)c1)[C@H]1CCN(C(=O)C2CCN(c3ccc(C#N)cn3)CC2)C[C@@H]1c1ccc(Cl)cc1 [Example 49, 4-{(3S,4S)-3-(4-Chloro-phenyl)-4-[(S)-1-(3,4-dichloro-phenoxy)-ethyl]-piperidine-1-carbonyl}-3,4,5,6-tetrahydro-2H-[1,2′]bipyridinyl-5′-carbonitrile] | 5.5 |
| C[C@H](Oc1ccc(F)c(F)c1)[C@H]1CCN(C(=O)C2CCN(c3ccc(C#N)cn3)CC2)C[C@@H]1c1ccc(Cl)cc1 [Example 54, 4-{(3S,4S)-3-(4-Chloro-phenyl)-4-[(S)-1-(3,4-difluoro-phenoxy)-ethyl]-piperidine-1-carbonyl}-3,4,5,6-tetrahydro-2H-[1,2′]bipyridinyl-5′-carbonitrile] | 1.7 |
| C[C@H](Oc1ccc(Cl)cn1)[C@H]1CCN(C(=O)C2CCN(C(=O)C3(C)CC3)CC2)C[C@@H]1c1ccc(F)c(F)c1 [Example 63, {4-[(3S,4S)-4-[(S)-1-(5-Chloro-pyridin-2-yloxy)-ethyl]-3-(3,4-difluoro-phenyl)-piperidine-1-carbonyl]piperidin-1-yl}-(1-methyl-cyclopropyl)-methanone] | 3.5 |
| N#Cc1ccc(N2CCC(C(=O)N3CC[C@H](COc4ccc(Cl)cn4)[C@@H](c4ccc(F)c(F)c4)C3)CC2)nc1 (relative stereo) [Example 33] | 1.3 |
| Cc1cc(C(=O)N2CC[C@H]([C@H](C)Oc3ccc(C#N)cn3)[C@@H](c3ccc(Cl)cc3)C2)cnn1 [Example 24, 6-{(S)-1-[(3S,4S)-3-(4-Chloro-phenyl)-1-(6-methyl-pyridazine-4-carbonyl)-piperidin-4-yl]-ethoxy}-nicotinonitrile] | 8.7 |
| C[C@H](Oc1ccc(C(F)(F)F)cc1)[C@H]1CCN(C(=O)C2CCN(c3ccc(C#N)cn3)CC2)C[C@@H]1c1ccc(Cl)cc1 [Example 50, 4-{(3S,4S)-3-(4-Chloro-phenyl)-4-[(S)-1-(4-trifluoromethyl-phenoxy)-ethyl]-piperidine-1-carbonyl}-3,4,5,6-tetrahydro-2H-[1,2′]bipyridinyl-5′-carbonitrile] | 1.3 |
| C[C@H](Oc1ccc(Cl)cn1)[C@H]1CCN(C(=O)C2CCN(c3ccc(C#N)cn3)CC2)C[C@@H]1c1ccc(Cl)cc1 [Example 13, 4-{(3S,4S)-3-(4-Chloro-phenyl)-4-[(S)-1-(5-chloro-pyridin-2-yloxy)-ethyl]-piperidine-1-carbonyl}-3,4,5,6-tetrahydro-2H-[1,2′]bipyridinyl-5′-carbonitrile] | 0.3 |

System: not given
Test: not given
Conditions: phase II trial; altered behavior, delusion, hallucinations, extreme emotions, excited motor activity, incoherent speech; cited from earlier work

| Structure (SMILES) | activity on positive symptoms of schizophrenia |
| --- | --- |
| CC(=O)N(C)C1(c2ccccc2)CCN(CCC[C@]2(c3ccc(Cl)c(Cl)c3)CCCN(C(=O)c3ccccc3)C2)CC1 [SR 142,801, Osanetant] | active |

Same assay, conditions: phase II trial; depression, anhedonia, social isolation or memory and attention deficits; cited from earlier work

| Structure (SMILES) | activity in the treatment of negative symptoms |
| --- | --- |
| CC(=O)N(C)C1(c2ccccc2)CCN(CCC[C@]2(c3ccc(Cl)c(Cl)c3)CCCN(C(=O)c3ccccc3)C2)CC1 [SR 142,801, Osanetant] | inactive |
